Experimental data reported in publication PMC10459838 (Veterinary Sciences, 2023).
Where two headings read alike, the source gives them in different places.

Legend:
[1] = tested on: FIPV serotype II strain (WSU-79-1146); assay: Antiviral efficacy against FIPV replication in CRFK cells, viral load by qRT-PCR; format: cell-based, feline infectious peritonitis virus; details: for Selectivity index (SI) = (mean CC50)/(mean EC50): against FIPV in CRFK cells; for Viral load (FIPV RNA copies) / FIPV viral copies with GS441524: GS441524 25 µM; for Viral load (FIPV RNA copies): inoculum […] 10^4 TCID50/mL
[2] = tested on: CRFK cells; assay: Cell viability assay (MTT, Cell Proliferation Kit I); format: cell-based, feline
Experimental: (§1) The Crandell-Reese feline kidney (CRFK) cells utilized in this study were purchased from American Type Culture Collection (ATCC, Manassas, VA, USA), and cultured in Eagle’s Minimum Essential Medium (EMEM) medium supplemented with 10% fetal bovine serum (FBS), 1% antibiotics (penicillin and streptomycin), and 1% non-essential amino acids. The reagents were obtained from ATCC. The CRFK cells were incubated at 37 °C with 5% CO2.
(§2) The cell viability of CRFK cells was measured using a Cell Proliferation Kit I (MTT) (Roche Applied Science, Indianapolis, IN, USA), following the manufacturer’s instructions. […] After incubation for 48 h, 10 μL of MTT solution (0.5 mg/mL in phosphate-buffered saline) was added to each well. The plate was incubated for 4 h at 37 °C to allow the formation of formazan crystals. Following incubation, 1% sodium dodecyl sulfate (100 μL) solution was added to dissolve the crystals.

[3] = tested on: CRFK cells; details: 48 h
[4] = tested on: COVID-19; design: method as in PMID 34933447; details: co-administered with ritonavir within 3 to 5 days of COVID-19 symptom onset; cited from earlier work
[5] = Cell viability assay (MTT, Cell Proliferation Kit I); format: cell-based, feline; details: cat
Experimental: as §1, §2

[6] = tested on: FIPV; design: method as in earlier work; details: ref 39 (Jiao, Yan et al.); cited from earlier work
[7] = Alphacoronavirus 1, CRFK, 48 h, CRFK cells, FIPV […] 10^4 TCID50/mL, 48 h, qRT-PCR, read-out: 50% effective concentration (EC50) against FIPV replication
[8] = CRFK cells treated with drugs for 48 h, MTT assay (Figure 5), read-out: 50% cytotoxic concentration (CC50)
[9] = CRFK cells, FIPV […] 10^4 TCID50/mL, 48 h, qRT-PCR, read-out: 50% effective concentration (EC50) against FIPV replication
[10] = CRFK cells (Crandell-Reese feline kidney), CRFK cells treated with drugs for 48 h, MTT assay (Figure 5), read-out: 50% cytotoxic concentration (CC50)

Question: Which “Cytopathic effects (CPEs) in FIPV-infected cells” value (from here on “Cytopathic effects (CPEs)”) ([1]; 5 µM, 10-fold dilutions) does the source give for `CC(C)c1nc(CN(C)C(=O)N[C@H](C(=O)N[C@@H](Cc2ccccc2)C[C@H](O)[C@H](Cc2ccccc2)NC(=O)OCc2cncs2)C(C)C)cs1` [Ritonavir] here?
Answer: induced CPEs

Question: And the “Cytopathic effects (CPEs)” value ([1]; 50 µM, 10-fold dilutions)?
Answer: induced CPEs

Question: What about the EC50 [1, 7] of the same compound?
Answer: 17.6 µM

Question: And the “Concentration as high as which the drug could be used safely with minimal cytotoxicity” value (“Concentration as high” below) ([2]; cat, 48 h)?
Answer: 16 µM

Question: What about the “Highest concentration with essentially no cytotoxicity” value ([3]; cat) of the same compound?
Answer: 16 µM

Question: And the “Lowest concentration at which cytotoxicity was observed” value ([3]; cat)?
Answer: 31 µM

Question: Which “Cytopathic effects (CPEs)” value ([1]; 5 µM, 10-fold dilutions) does the source give for `CC(C)(C)[C@H](NC(=O)C(F)(F)F)C(=O)N1C[C@H]2[C@@H]([C@H]1C(=O)N[C@H](C#N)C[C@@H]1CCNC1=O)C2(C)C` [Nirmatrelvir] here?
Answer: no CPEs in cells

Question: What about the EC50 ([1]; Alphacoronavirus 1, CRFK, 48 h, read-out: 50% effective concentration (EC50) against FIPV replication, CRFK cells, FIPV […] 10^4 TCID50/mL, 48 h, qRT-PCR) of the same compound?
Answer: 2.46 µM

Question: And the inhibition at 5 µM ([1]; Alphacoronavirus 1, CRFK, read-out: Inhibition of FIPV replication)?
Answer: 80%

Question: What about the “Selectivity index (SI) = (mean CC50)/(mean EC50)” value (“Selectivity index (SI) =” for short) [1] of the same compound?
Answer: 113.7

Question: What about the “Selectivity index (SI) =” value ([1]; listed as nirmatrelvir) of the same compound?
Answer: 113.67

Question: What about the EC50 ([1]; read-out: 50% effective concentration (EC50) against FIPV replication, CRFK cells, FIPV […] 10^4 TCID50/mL, 48 h, qRT-PCR) of the same compound?
Answer: 2.5 µM

Question: What about the “Reduction in hospitalizations and death” value [4] of the same compound?
Answer: 89%

Question: What about the CC50 at 48 h [5, 8] of the same compound?
Answer: 279 µM

Question: What about the “Concentration as high” value ([2]; CRFK cells, 48 h, MTT staining) of the same compound?
Answer: 63 µM

Question: And the “Highest concentration with essentially no cytotoxicity” value ([3]; CRFK cells, CellTox Green)?
Answer: 63 µM

Question: And the EC50 [6]?
Answer: 2.52 µM

Question: What does the source list for `N#CC[C@H](C1CCCC1)n1cc(-c2ncnc3[nH]ccc23)cn1` [Ruxolitinib]?
Answer: EC50 ([1]; Alphacoronavirus 1, CRFK, 48 h, read-out: 50% effective concentration (EC50) against FIPV replication): 43.6 µM; CC50 at 48 h ([5]; 50% cytotoxic concentration (CC50)): 338 µM; CC50 ([2]; cat, 48 h): 338 µM; Lowest concentration at which cytotoxicity was observed ([3]; CRFK cells, cytotoxicity assay): 250 µM

Question: Which “Cytopathic effects (CPEs)” value ([1]; 0.5 µM, 10-fold dilutions) does the source give for `N#C[C@@]1(c2ccc3c(N)ncnn23)O[C@H](CO)[C@@H](O)[C@H]1O` [GS441524, GS-441524] here?
Answer: no CPEs observed in cells

Question: What about the “Reduction in FIPV copy number” value ([1]; 0.98 µM, two-fold dilutions, 48 hpi) of the same compound?
Answer: 22.5%

Question: And the “Lowest concentration with anti-FIPV efficacy compared to no-drug group” value ([1]; 10-fold dilutions, 48 hpi)?
Answer: 0.5 µM

Question: What about the EC50 [1, 7] of the same compound?
Answer: 1.57 µM

Question: And the inhibition at 0.5 µM ([1]; Alphacoronavirus 1, CRFK, 0.5 µM, 10-fold dilutions, 48 hpi)?
Answer: 85%

Question: And the inhibition at […] ([1]; Alphacoronavirus 1, CRFK, 7.8 µM, two-fold dilutions, 48 hpi)?
Answer: 98.3%

Question: And the EC50 [1, 9]?
Answer: 1.6 µM

Question: What about the “Viral load (FIPV RNA copies)” value ([1]; 0 hpi (applied at inoculation, remained), 24 h) of the same compound?
Answer: 2.58 × 10^4 per ml

Question: And the “Viral load (FIPV RNA copies)” value ([1]; 0 hpi, 48 h)?
Answer: 1.97 × 10^4 per ml

Question: What about the “Viral load (FIPV RNA copies)” value ([1]; 0 hpi, 72 h) of the same compound?
Answer: 2.04 × 10^4 per ml

Question: What about the “Viral load (FIPV RNA copies)” value ([1]; +1 hpi (applied 1 h post inoculation), 24 h) of the same compound?
Answer: 2.84 × 10^4 per ml

Question: What about the “Viral load (FIPV RNA copies)” value ([1]; +1 hpi, 48 h) of the same compound?
Answer: 1.52 × 10^4 per ml

Question: What about the “Viral load (FIPV RNA copies)” value ([1]; +1 hpi, 72 h) of the same compound?
Answer: 1.39 × 10^4 per ml

Question: What about the “FIPV viral copies with GS441524” value ([1]; FIPV inoculum […] 10^2 TCID50/mL, 48 h) of the same compound?
Answer: 4.60 × 10^1 per ml

Question: And the “FIPV viral copies with GS441524” value ([1]; FIPV inoculum […] 10^2 TCID50/mL, 72 h)?
Answer: 2.36 × 10^1 per ml

Question: And the “FIPV viral copies with GS441524” value ([1]; FIPV inoculum […] 10^3 TCID50/mL, 48 h)?
Answer: 3.48 × 10^2 per ml

Question: What about the “FIPV viral copies with GS441524” value ([1]; FIPV inoculum […] 10^3 TCID50/mL, 72 h) of the same compound?
Answer: 2.09 × 10^2 per ml

Question: What about the “FIPV viral copies with GS441524” value ([1]; FIPV inoculum […] 10^4 TCID50/mL, 48 h) of the same compound?
Answer: 2.76 × 10^3 per ml

Question: And the “FIPV viral copies with GS441524” value ([1]; FIPV inoculum […] 10^4 TCID50/mL, 72 h)?
Answer: 3.24 × 10^3 per ml

Question: What about the “Viral load (FIPV RNA copies)” value ([1]; −2 & +1 hpi (applied 2 h before, removed, applied again at 1 hpi), 24 h) of the same compound?
Answer: 2.47 × 10^4 per ml

Question: And the “Viral load (FIPV RNA copies)” value ([1]; −2 hpi (applied 2 h before inoculation, removed before inoculation), 24 h)?
Answer: 1.97 × 10^4 per ml

Question: And the “Viral load (FIPV RNA copies)” value ([1]; −2 hpi, 48 h)?
Answer: 2.94 × 10^5 per ml

Question: And the “Viral load (FIPV RNA copies)” value ([1]; −2 hpi, 72 h)?
Answer: 6.89 × 10^6 per ml

Question: What about the “Lowest concentration with antiviral efficacy” value ([1]; two-fold dilutions, 48 hpi) of the same compound?
Answer: 0.98 µM

Question: What about the CC50 at 48 h [5, 8] of the same compound?
Answer: 260 µM

Question: What about the CC50 [2, 8] of the same compound?
Answer: 260 µM

Question: With `CC(C)C(=O)OC[C@H]1O[C@@H](n2ccc(NO)nc2=O)[C@H](O)[C@@H]1O` [Molnupiravir] as the compound, how does the EC50 [1, 7] read?
Answer: 8 µM

Question: What about the EC50 [1, 9] of the same compound?
Answer: 8.04 µM

Question: And the “Selectivity index (SI) =” value [1]?
Answer: 29.3

Question: What about the “Selectivity index (SI) =” value ([1]; listed as molnupiravir) of the same compound?
Answer: 29.27

Question: And the CC50 at 48 h [5, 10]?
Answer: 235 µM

Question: What about the CC50 [2, 8] of the same compound?
Answer: 235 µM

Question: And the “Concentration as high” value ([2]; CRFK cells, 48 h, MTT staining)?
Answer: 63 µM

Question: What about the “Highest concentration with essentially no cytotoxicity” value ([3]; CRFK cells, CellTox Green) of the same compound?
Answer: 63 µM

Question: With `C/C(O)=C(\C#N)C(=O)Nc1ccc(C(F)(F)F)cc1` [Teriflunomide] as the compound, how does the EC50 [1, 7] read?
Answer: 49.6 µM

Question: And the CC50 at 48 h [5, 10]?
Answer: 134 µM

Question: What about the “Concentration as high” value ([2]; CRFK cells, 48 h, MTT staining) of the same compound?
Answer: 62.5 µM

Question: What about the “Highest concentration with essentially no cytotoxicity” value ([3]; cat) of the same compound?
Answer: 63 µM
